How the values were obtained:
SARS-CoV-2 M^pro enzyme [1] = target: T1, SARS-CoV-2 M^pro enzyme (Severe acute respiratory syndrome coronavirus 2, UniProt P0DTD1); experiment: FRET-based enzyme assay and IC50 determination; format: biochemical; conditions: 4.6 μM enzyme, HEPES pH 6.5
SARS-CoV-2 M^pro enzyme [2] = target: T1, SARS-CoV-2 M^pro enzyme; experiment: Inhibition kinetic study (Lineweaver–Burk, FRET assay); format: biochemical; conditions: from slope of Lineweaver–Burk curves vs. inhibitor concentration

Q: For `O=C(CSc1cnc2ccccc2n1)NC1CCCC1` [CB03], which IC50 (SARS-CoV-2 M^pro enzyme [1]) is on record?
A: The IC50 was 301 ± 10 µM.

Q: What about the Ki (SARS-CoV-2 M^pro enzyme [2]) of the same compound?
A: Its Ki is 256 µM.
